In PubChem BioAssay (NCI):
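Results reflect a 48-hour exposure of cells in 96-well plates to compound at five concentrations. At the GI50, growth is halved. TGI is the concentration that stops growth completely.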

What was measured:
Assay in all cases: NCI anticancer screen, dose series, 48 h
CCRF-CEM leukemia = tested on: CCRF-CEM leukemia
HCT-15 colon = tested on: HCT-15 colon
OVCAR-5 ovarian = tested on: OVCAR-5 ovarian
RXF 393 renal = tested on: RXF 393 renal
SF-268 CNS = tested on: SF-268 CNS
SF-295 CNS = tested on: SF-295 CNS
SK-MEL-2 melanoma = tested on: SK-MEL-2 melanoma
SN12C renal = tested on: SN12C renal
UACC-62 melanoma = tested on: UACC-62 melanoma
A498 renal = tested on: A498 renal

Row | SMILES | TGI (CCRF-CEM leukemia) | TGI (HCT-15 colon) | TGI (OVCAR-5 ovarian) | TGI (RXF 393 renal) | TGI (SF-268 CNS) | TGI (SF-295 CNS) | TGI (SK-MEL-2 melanoma) | TGI (SN12C renal) | TGI (UACC-62 melanoma) | TGI (A498 renal) | GI50 (A498 renal) | GI50 (CCRF-CEM leukemia) | GI50 (HCT-15 colon) | GI50 (OVCAR-5 ovarian) | GI50 (RXF 393 renal) | GI50 (SF-268 CNS) | GI50 (SF-295 CNS) | GI50 (SK-MEL-2 melanoma) | GI50 (SN12C renal) | GI50 (UACC-62 melanoma)
1 | O=C(O)C1=NNC(C(=O)O)=NN1 | > 100 µM | > 100 µM | > 100 µM | > 100 µM | > 100 µM | > 100 µM | > 100 µM | > 100 µM | > 100 µM |  |  |  |  |  |  |  |  |  |  | 
2 | CC(CO)(CO)Nc1ncnc2ccccc12 | > 100 µM | > 100 µM | > 100 µM | > 100 µM | > 100 µM | > 100 µM | > 100 µM | > 100 µM | > 100 µM | > 100 µM |  |  |  |  |  |  |  |  |  | 
3 | COc1cc(C)c2c(=O)c3c(oc2c1)C(=O)c1c(O)c(OC)cc(O)c1C3=O | 5.12 µM | 3.79 µM | 5.36 µM | 2.71 µM | > 50 µM | 3.23 µM | 1.88 µM | 5.3 µM | 4.61 µM | 5.54 µM |  |  |  |  |  |  |  |  |  | 
4 | c1ccc2sc(SCN(C3CCCCC3)C3CCCCC3)nc2c1 |  | > 100 µM | > 100 µM | > 100 µM | > 100 µM | > 100 µM | > 100 µM |  | > 100 µM | > 100 µM |  |  |  |  |  |  |  |  |  | 
5 | COc1cc2c(cc1Oc1ccc(OC)c3c1CC1c4c(cc(OC)c(OC)c4-3)CCN1C)CC1c3c(cc(OC)c(OC)c3-2)CCN1C (stereo not given) | 10.2 µM | 6.93 µM | 12.8 µM | 3.81 µM | 14.8 µM | 6.11 µM | 3.79 µM | 19.3 µM | 3.65 µM | 12.6 µM |  |  |  |  |  |  |  |  |  | 
6 | O=c1cc(O)c2ccccc2o1 | > 100 µM |  | > 100 µM | > 100 µM | > 100 µM | > 100 µM |  | > 100 µM | > 100 µM | > 100 µM |  |  |  |  |  |  |  |  |  | 
7 | Fc1ccc(-c2nnc3sc(COc4ccccc4Cl)nn23)cc1Cl | 52.6 µM | 48.7 µM | > 100 µM | 69.2 µM | > 100 µM | > 100 µM | > 100 µM | > 100 µM | > 100 µM | 93.6 µM | 34.6 µM | 20.8 µM | 17.7 µM | 81 µM | 38.1 µM | 41.9 µM | 61.8 µM | 51.8 µM | 31.9 µM | 38.4 µM
8 | COc1c(Cl)cc(S(=O)O)cc1Cl | > 100 µM |  | > 100 µM | > 100 µM | > 100 µM |  | > 100 µM | > 100 µM | > 100 µM | > 100 µM |  |  |  |  |  |  |  |  |  | 
9 | Cn1c(Sc2ccc(-c3cccnc3)n2C)ccc1-c1cccnc1 | 4.53 µM | 35.6 µM | 50.9 µM | 36.3 µM | 23.7 µM | 38.6 µM | 30.1 µM | 39.6 µM | 29.7 µM | 47.6 µM |  |  |  |  |  |  |  |  |  | 
10 | Nc1nnc(N)n1NC(=O)C(=O)Nc1ccc([N+](=O)[O-])cc1 | > 100 µM | > 100 µM | > 100 µM | > 100 µM | > 100 µM | > 100 µM | > 100 µM | > 100 µM | > 100 µM | > 100 µM |  |  |  |  |  |  |  |  |  | 
11 | CCOC(=O)NC | > 100 µM | > 100 µM | > 100 µM | > 100 µM | > 100 µM | > 100 µM | > 100 µM | > 100 µM | > 100 µM | > 100 µM |  |  |  |  |  |  |  |  |  | 
12 | NC(=O)Nc1cc(O)ccc1N=Nc1ccc(S(=O)(=O)Nc2ccccn2)cc1 | > 100 µM | > 100 µM | > 100 µM |  | > 100 µM | > 100 µM | > 100 µM | > 100 µM | > 100 µM | > 100 µM |  |  |  |  |  |  |  |  |  | 
13 | CC1(O)CC23CC1CCC2(C)C12CCCC(C)(C(=O)O1)C2CC3O (stereo not given) | > 100 µM | > 100 µM | > 100 µM |  | > 100 µM | > 100 µM | > 100 µM | > 100 µM | > 100 µM | > 100 µM |  |  |  |  |  |  |  |  |  | 
14 | Cc1cc(=O)oc2c1cc(OCC(=O)OCCN1CCCCC1)c1occ(C)c12 | > 100 µM | > 100 µM | > 100 µM | > 100 µM |  | > 100 µM | > 100 µM | > 100 µM | > 100 µM | > 100 µM |  |  |  |  |  |  |  |  |  | 
15 | CC(C)=CCC[C@](C)(O[C@@H]1O[C@H](CO)[C@@H](O)[C@H](O)[C@H]1O)[C@H]1CC[C@]2(C)[C@@H]1[C@H](O)C[C@@H]1[C@@]3(C)CC[C@H](O)C(C)(C)[C@@H]3[C@@H](O[C@@H]3O[C@H](CO)[C@@H](O)[C@H](O)[C@H]3O)C[C@]12C | > 100 µM | > 100 µM | > 100 µM | > 100 µM | > 100 µM | > 100 µM | > 100 µM | > 100 µM | > 100 µM | > 100 µM |  |  |  |  |  |  |  |  |  | 
